Where two headings read alike, the source gives them in different places.
Experiments:
[1] = target: T1, recombinant HarmOBP10 (Helicoverpa armigera, UniProt G9I573); assay: Competitive fluorescence binding assay (displacement of 1-NPN from HarmOBP10); details: for activity at 16 µM / activity at 1.6 µM / activity at 6 µM: read-out: % at max (percent of fluorescence measured at the maximum concentration); for activity at 1.6 µM: max conc 1.6 (titration 0.5–1.6 µM); for quality as ligand of OBP10, in words: authors' comment on Table 1
Protocol: Emission fluorescence spectra were recorded on a Hitachi F-4500 at 25°C in a right angle configuration, with a 1 cm light path quartz cuvette and 5 nm slits for both excitation and emission. The protein was dissolved in 50 mM Tris-HCl buffer, pH 7.4, while ligands were added as 1 mM methanol solutions.
The probe was excited at 337 nm and emission spectra were recorded between 380 and 450 nm. […] Dissociation constant for 1-NPN and the stoichiometry of binding was obtained processing the data with Prism software.

[2] = target: T1, recombinant HarmOBP10; assay: Fluorescence binding assay of the probe 1-NPN to recombinant HarmOBP10
Protocol: Emission fluorescence spectra were recorded on a Hitachi F-4500 at 25°C in a right angle configuration, with a 1 cm light path quartz cuvette and 5 nm slits for both excitation and emission. […]
The probe was excited at 337 nm and emission spectra were recorded between 380 and 450 nm. […] Dissociation constant for 1-NPN and the stoichiometry of binding was obtained processing the data with Prism software. Dissociation constants of the competitors were calculated from the corresponding IC50 values (concentrations of ligands halving the initial fluorescence value of 1-NPN), using the equation: KD = [IC50]/1+[1-NPN]/K1-NPN, [1-NPN] being the free concentration of 1-NPN and K1-NPN being the dissociation constant of the complex protein/1-NPN.

[3] = max conc 16 (titration 2–16 µM), protein and 1-NPN both 2 µM, percent of fluorescence without competitor
[4] = calculated from IC50: KD = [IC50]/1+[1-NPN]/K1-NPN, read-out: KD (calculated dissociation constant)
[5] = protein and 1-NPN both 2 µM, Tris pH 7.4, unit from method text, not in table, read-out: IC50 (concentration of ligand halving the initial fluorescence value)
[6] = protein and 1-NPN both 2 µM, percent of fluorescence without competitor
[7] = max conc 6 (titration 0.5–6 µM), protein and 1-NPN both 2 µM, percent of fluorescence without competitor

T1 sequence (G9I573 entry or part of it): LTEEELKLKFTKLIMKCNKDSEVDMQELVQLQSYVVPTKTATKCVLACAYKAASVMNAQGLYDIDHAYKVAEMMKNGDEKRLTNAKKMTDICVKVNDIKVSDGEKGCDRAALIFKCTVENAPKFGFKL

Which activity at 16 µM [1, 3] does the source give for `CC(=O)OCCc1ccccc1` [2-Phenylethyl acetate] here?
The activity at 16 µM was 77%.

Which Kd [1, 4] does the source give for `CC(CC=O)CCCC(C)(C)O` (stereo not shown) [Hydroxycitronellal] here?
Its Kd is 10.5 µM.

And the activity at 16 µM [1, 3]?
Its activity at 16 µM is 48%.

And the IC50 [1, 5]?
The IC50 was 13.5 µM.

With `CCCCCCCCCCCC(C)=O` [2-Tridecanone] as the compound, how does the activity at 16 µM [1, 3] read?
Its activity at 16 µM is 60%.

Which activity at 1.6 µM [1, 6] does the source give for `CCCC/C=C\CCCCCCCCCCO` [(Z)-11-Hexadecen-1-ol] here?
The activity at 1.6 µM was 74%.

How did the “quality as ligand of OBP10, in words” value [1] turn out when `CC(C)(C)c1ccc(C(=O)c2ccccc2)cc1` [p-tert-Butylbenzophenone] was run?
The value was “Even better ligands”.

What about the Kd [1, 4] of the same compound?
Its Kd is 2.6 µM.

What about the “% at max (percent of fluorescence measured at the maximum concentration)” value [1, 3] of the same compound?
The value was 13%.

And the IC50 [1, 5]?
Its IC50 is 3.3 µM.

Which results are given for `CC(C)=CCC/C(C)=C/CC/C(C)=C/CO` [Farnesol]?
Kd [1, 4]: 5.4 µM; activity at 6 µM [1]: 54%

Which activity at 1.6 µM [1, 6] does the source give for `CCCCCC/C=C\CCCCCCCC=O` [(Z)-9-Hexadecenal] here?
Its activity at 1.6 µM is 73%.

Which “quality as ligand of OBP10, in words” value [1] does the source give for `CCCCCCCCOC(=O)c1ccccc1` [n-Octyl benzoate] here?
The value was “the best”.

What about the Kd [1, 4] of the same compound?
Its Kd is 3.1 µM.

And the “% at max (percent of fluorescence measured at the maximum concentration)” value [1, 3]?
The value was 29%.

What about the IC50 [1, 5] of the same compound?
The IC50 was 4 µM.

For `CCCCCCCCCCC(C)=O` [2-Dodecanone], which Kd [1, 4] is on record?
Its Kd is 13.2 µM.

What about the activity at 16 µM [1, 3] of the same compound?
Its activity at 16 µM is 51%.

Which activity at 16 µM [1, 3] does the source give for `COC(=O)C=Cc1ccccc1` [Methyl cinnamate] here?
Its activity at 16 µM is greater than 100%.

How did the activity at 16 µM [1, 3] turn out when `CCCCCCCCCCCCOC(C)=O` [Dodecyl acetate] was run?
Its activity at 16 µM is greater than 100%.

`CCCCCCCCCC=O` [Decanal] was tested. Which activity at 16 µM [1, 3] did it give?
Its activity at 16 µM is greater than 100%.

With `CCCCCCCCCCCCCCO` [1-Tetradecanol] as the compound, how does the IC50 [1] read?
Its IC50 is 1.8 µM.

What about the Kd [1] of the same compound?
Its Kd is 1.4 µM.

And the “quality as ligand of OBP10, in words” value [1]?
Its value is “maximum of affinity”.

What about the activity at 6 µM [1] of the same compound?
The activity at 6 µM was 36%.

For `CC(C)c1ccc(C=O)cc1` [p-Isopropylbenzaldehyde], which “% at max (percent of fluorescence measured at the maximum concentration)” value [1, 3] is on record?
The value was 77%.

How did the activity at 16 µM [1] turn out when `COc1cc(CC(=O)O)ccc1O` [Homovanillic acid] was run?
Its activity at 16 µM is 66%.

Which activity at 16 µM [1] does the source give for `Cc1ccc2ccccc2c1` [2-Methylnaphthalene] here?
Its activity at 16 µM is 75%.

`CC(C)=CCC/C(C)=C/CO` [Geraniol] was tested. Which activity at 16 µM [1, 3] did it give?
The activity at 16 µM was 69%.

`CCCCCCCCCCCCCCCCCCO` [1-Octadecanol] was tested. Which activity at 6 µM [1, 7] did it give?
The activity at 6 µM was 56%.

How did the Kd [1, 4] turn out when `CCCCCCOC(=O)c1ccccc1` [n-Hexyl benzoate] was run?
The Kd was 5.8 µM.

What about the “% at max (percent of fluorescence measured at the maximum concentration)” value [1, 3] of the same compound?
The value was 35%.

What about the IC50 [1, 5] of the same compound?
Its IC50 is 7.5 µM.

`CCCCCCCCCC(=O)O` [Decanoic acid] was tested. Which activity at 6 µM [1, 7] did it give?
Its activity at 6 µM is 62%.

How did the activity at 16 µM [1, 3] turn out when `O=C(O)CCCc1ccccc1` [4-Phenylbutyric acid] was run?
Its activity at 16 µM is 73%.

`CCCCCC/C=C\CCCCCCCCO` [(Z)-9-Hexadecen-1-ol] was tested. Which activity at 1.6 µM [1, 6] did it give?
The activity at 1.6 µM was 65%.

For `CCCCCCCCCCCCCCCCO` [1-Hexadecanol], which activity at 6 µM [1, 7] is on record?
The activity at 6 µM was 55%.

How did the activity at 6 µM [1, 7] turn out when `CCCCC/C=C\C/C=C\CCCCCCCC(=O)O` [Linoleic acid] was run?
Its activity at 6 µM is 56%.

Which activity at 16 µM [1, 3] does the source give for `COc1ccc(-c2ccccc2)cc1` [4-Phenylanisole] here?
The activity at 16 µM was 65%.

`CCCCOC(=O)c1ccccc1` [n-Butyl benzoate] was tested. Which “quality as ligand of OBP10, in words” value [1] did it give?
The value was “poor ligand”.

And the activity at 16 µM [1, 3]?
Its activity at 16 µM is 62%.

What does the source list for `CCCCOC(=O)C=Cc1ccccc1` [n-Butyl cinnamate]?
Kd [1, 4]: 9.7 µM; % at max (percent of fluorescence measured at the maximum concentration) [1, 3]: 42%; IC50 [1, 5]: 12.5 µM

For `CCCCCCCCCCCCCO` [1-Tridecanol], which activity at 6 µM [1, 7] is on record?
Its activity at 6 µM is 85%.

With `CCCCOC(=O)c1ccc(C(C)(C)C)cc1` [Butyl p-tert-butylbenzoate] as the compound, how does the Kd [1, 4] read?
The Kd was 10.9 µM.

What about the “% at max (percent of fluorescence measured at the maximum concentration)” value [1, 3] of the same compound?
The value was 48%.

What about the IC50 [1, 5] of the same compound?
The IC50 was 14 µM.

Which Kd [1, 4] does the source give for `CC(CCCC(C)(C)O)CC(=O)O` (stereo not shown) [Hydroxycitronellic acid] here?
The Kd was 12.4 µM.

And the “% at max (percent of fluorescence measured at the maximum concentration)” value [1, 3]?
Its value is 50%.

And the IC50 [1, 5]?
The IC50 was 16 µM.

`CC(C)=CCCC(C)=CC#N` [Citralva] was tested. Which “% at max (percent of fluorescence measured at the maximum concentration)” value [1, 3] did it give?
Its value is 60%.

`CC(C)CCCC(C)CCOC(=O)c1ccccc1` (stereo not shown) [3,7-Dimethyloctyl benzoate] was tested. Which Kd [1, 4] did it give?
Its Kd is 4.7 µM.

What about the activity at 16 µM [1, 3] of the same compound?
Its activity at 16 µM is 34%.

And the IC50 [1, 5]?
Its IC50 is 6 µM.

`CCCCCCCCCCCCCCCC(=O)OCC` [Ethyl palmitate] was tested. Which activity at 6 µM [1, 7] did it give?
The activity at 6 µM was 69%.

`C=CCc1ccc(O)c(OC)c1` [Eugenol] was tested. Which activity at 16 µM [1] did it give?
Its activity at 16 µM is 80%.

`CCCCCCCCC=O` [Nonanal] was tested. Which activity at 16 µM [1, 3] did it give?
Its activity at 16 µM is greater than 100%.

With `O=C(O)/C=C/c1ccccc1` [Cinnamic acid] as the compound, how does the activity at 16 µM [1] read?
Its activity at 16 µM is 74%.

`CC(C)=CCC/C(C)=C/C=O` [Citral] was tested. Which activity at 16 µM [1] did it give?
Its activity at 16 µM is 66%.

Which activity at 6 µM [1, 7] does the source give for `CCCCCCCCCCCC(=O)OCC` [Ethyl laurate] here?
The activity at 6 µM was 70%.

For `c1ccc(Nc2cccc3ccccc23)cc1` [1-NPN], which Kd ([2]; 2 µM protein in 50 mM Tris-HCl, pH 7.4, single binding site, averages of three replicates, read-out: dissociation constant of 1-NPN) is on record?
The Kd was 5.7 µM.

And the “effect of pH on affinity of 1-NPN” value ([2]; pH range from 5 to 9.4)?
Its value is “marked loss of affinity in acidic conditions”.

`CCCCCCCCCCO` [1-Decanol] was tested. Which activity at 6 µM [1, 7] did it give?
Its activity at 6 µM is 63%.

What does the source list for `COc1cc(/C=C/C=O)ccc1O` [Coniferyl aldehyde]?
IC50 [1]: 7.5 µM; Kd [1]: 5.8 µM; activity at 16 µM [1]: 30%

`CC(=O)OCCC(C)CCCC(C)C` (stereo not shown) [3,7-Dimethyloctyl acetate] was tested. Which activity at 16 µM [1, 3] did it give?
Its activity at 16 µM is 59%.

`CCCCCCCCCCCCS` [1-Dodecanthiol] was tested. Which activity at 6 µM [1, 7] did it give?
The activity at 6 µM was 62%.

Which IC50 [1] does the source give for `C=CCCCCCCCCCC` [1-Dodecene] here?
Its IC50 is 6 µM.

What about the Kd [1] of the same compound?
The Kd was 4.7 µM.

And the “quality as ligand of OBP10, in words” value [1]?
Its value is “rather good ligand”.

And the activity at 6 µM [1]?
Its activity at 6 µM is 50%.

`CCCCC/C(C=O)=C/c1ccccc1` [a-Amylcinnamaldehyde] was tested. Which “quality as ligand of OBP10, in words” value [1] did it give?
The value was “Even better ligands”.

What about the Kd [1, 4] of the same compound?
Its Kd is 2.7 µM.

And the “% at max (percent of fluorescence measured at the maximum concentration)” value [1, 3]?
The value was 13%.

And the IC50 [1, 5]?
The IC50 was 3.5 µM.

Which results are given for `CCCCCCCCCC(=O)OCC` [Ethyl decanoate]?
Kd [1, 4]: 4.3 µM; IC50 [1, 5]: 5.5 µM; activity at 6 µM [1]: 44%

How did the activity at 6 µM [1, 7] turn out when `CCCCCCCCCCCCCC(=O)OCC` [Ethyl myristate] was run?
The activity at 6 µM was 73%.

Which Kd [1, 4] does the source give for `COC(C=O)=Cc1ccccc1` [a-Methoxycinnamaldehyde] here?
The Kd was 9.7 µM.

And the “% at max (percent of fluorescence measured at the maximum concentration)” value [1, 3]?
Its value is 37%.

And the IC50 [1, 5]?
The IC50 was 12.5 µM.

With `CC(C=O)Cc1ccc(C(C)C)cc1` (stereo not shown) [Cyclamen aldehyde] as the compound, how does the “% at max (percent of fluorescence measured at the maximum concentration)” value [1, 3] read?
The value was greater than 100%.

`CCCCCCCCCCCC=O` [Dodecanal] was tested. Which activity at 6 µM [1, 7] did it give?
The activity at 6 µM was 73%.

Which activity at 1.6 µM [1, 6] does the source give for `CCCC/C=C\CCCCCCCCCC=O` [(Z)-11-Hexadecenal] here?
The activity at 1.6 µM was 76%.
